Columns and labels:
[1] = target: T1, mouse DGAT1 (Mus musculus, UniProt Q9Z2A7); experiment: DGAT1 inhibitory effect test (microsome fraction, [14C]-oleoyl-CoA, triglyceride radioactivity by TLC); type: biochemical; details: 0.5 h; concentration of the test compound 0.1 μg/ml; mouse DGAT1 microsomes, 23° C., 30 minutes; read-out: Inhibitory ratio
T1 construct: made in house; host or cells: insect cells (High Five, Sf9, Sf21, etc.), baculovirus expression system (Invitrogen)
T1 sequence (Q9Z2A7 1-498): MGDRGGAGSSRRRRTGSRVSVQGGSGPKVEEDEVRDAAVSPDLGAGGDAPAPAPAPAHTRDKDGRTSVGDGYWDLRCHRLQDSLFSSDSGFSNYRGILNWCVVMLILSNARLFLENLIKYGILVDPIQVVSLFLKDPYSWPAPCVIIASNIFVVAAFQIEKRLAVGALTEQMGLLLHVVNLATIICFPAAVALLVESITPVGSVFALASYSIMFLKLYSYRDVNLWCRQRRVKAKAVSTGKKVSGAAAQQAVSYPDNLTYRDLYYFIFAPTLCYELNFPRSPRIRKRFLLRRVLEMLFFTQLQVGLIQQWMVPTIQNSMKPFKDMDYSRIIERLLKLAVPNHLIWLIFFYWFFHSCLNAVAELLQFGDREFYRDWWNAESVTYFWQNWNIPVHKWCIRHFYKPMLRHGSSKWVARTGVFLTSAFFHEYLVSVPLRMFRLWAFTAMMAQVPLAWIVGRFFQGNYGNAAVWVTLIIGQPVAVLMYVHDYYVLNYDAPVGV
In short: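 Inhibition was scored from radiolabelled triglyceride separated by TLC, relative to vehicle and net of a 0-min background. The reaction ran for 30 min at room temperature (23 °C) in Tris-HCl pH 8.0 with MgCl2, BSA and Triton X-100. Substrates were 30 μM [14C]-oleoyl-CoA and 0.5 mM dioleoylglycerol, with mouse DGAT1 microsomes from baculovirus-infected insect cells as enzyme.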

Compound	inhibition at 0.1 µg/mL [1] [%]	melting point
CCOc1ccc(Cl)cc1NC(=O)Nc1ccc(N2CCN(C(=O)Nc3ccc(C)cc3Cl)CC2)cc1 [Example 107, 4-{4-[3-(5-chloro-2-ethoxy-phenyl)-ureido]-phenyl}-piperazine-1-carboxylic acid (2-chloro-4-methyl-phenyl)-amide]	≥ 50	124 to 126 °C
COc1ccc(NC(=O)N2CCN(c3ccc(NC(=O)Nc4cc(Cl)ccc4OC)cc3)CC2)c(C)c1 [Example 109, 4-{4-[3-(5-chloro-2-methoxy-phenyl)-ureido]-phenyl}-piperazine-1-carboxylic acid (4-methoxy-2-methyl-phenyl)-amide]	≥ 50	225 to 226 °C
CCOc1ccccc1NC(=O)Nc1ccc(N2CCN(C(=O)Nc3ccc(OC)cc3C)CC2)cc1 [Example 110, 4-{4-[3-(2-ethoxy-phenyl)-ureido]-phenyl}-piperazine-1-carboxylic acid (4-methoxy-2-methyl-phenyl)-amide]	≥ 50	202 to 203 °C
CCOc1ccc(C)cc1NC(=O)Nc1ccc(N2CCN(C(=O)Nc3ccc(OC)cc3C)CC2)cc1 [Example 111, 4-{4-[3-(2-ethoxy-5-methyl-phenyl)-ureido]-phenyl}-piperazine-1-carboxylic acid (4-methoxy-2-methyl-phenyl)-amide]	≥ 50	202 to 204 °C
CCOc1ccc(F)cc1NC(=O)Nc1ccc(N2CCN(C(=O)Nc3ccc(OC)cc3C)CC2)cc1 [Example 112, 4-{4-[3-(2-ethoxy-5-fluoro-phenyl)-ureido]-phenyl}-piperazine-1-carboxylic acid (4-methoxy-2-methyl-phenyl)-amide]	≥ 50	186 to 189 °C
COc1ccc(NC(=O)N2CCN(c3ccc(NC(=O)Nc4cc(F)ccc4OC)cc3)CC2)c(C)c1 [Example 113, 4-{4-[3-(5-fluoro-2-methoxy-phenyl)-ureido]-phenyl}-piperazine-1-carboxylic acid (4-methoxy-2-methyl-phenyl)-amide]	≥ 50	216 to 218 °C
COc1ccc(Cl)cc1NC(=O)Nc1ccc(N2CCN(C(=O)Nc3c(C)cccc3C)CC2)cc1 [Example 114, 4-{4-[3-(5-chloro-2-methoxy-phenyl)-ureido]-phenyl}-piperazine-1-carboxylic acid (2,6-dimethyl-phenyl)-amide]	≥ 50	216 to 218 °C
COc1ccc(Cl)cc1NC(=O)Nc1ccc(N2CCN(C(=O)Nc3c(F)cccc3C(F)(F)F)CC2)cc1 [Example 115, 4-{4-[3-(5-chloro-2-methoxy-phenyl)-ureido]-phenyl}-piperazine-1-carboxylic acid (2-fluoro-6-trifluoromethyl-phenyl)-amide]	≥ 50	156 to 158 °C
CCOc1ccccc1NC(=O)Nc1ccc(N2CCN(C(=O)Nc3c(C)cccc3C)CC2)cc1 [Example 116, 4-{4-[3-(2-ethoxy-phenyl)-ureido]-phenyl}-piperazine-1-carboxylic acid (2,6-dimethyl-phenyl)-amide]	≥ 50	204 to 205 °C
CCOc1ccccc1NC(=O)Nc1ccc(N2CCN(C(=O)Nc3c(F)cccc3C(F)(F)F)CC2)cc1 [Example 117, 4-{4-[3-(2-ethoxy-phenyl)-ureido]-phenyl}-piperazine-1-carboxylic acid (2-fluoro-6-trifluoromethyl-phenyl)-amide]	≥ 50	139 to 141 °C
CCOc1ccc(C)cc1NC(=O)Nc1ccc(N2CCN(C(=O)Nc3c(C)cccc3C)CC2)cc1 [Example 118, 4-{4-[3-(2-ethoxy-5-methyl-phenyl)-ureido]-phenyl}-piperazine-1-carboxylic acid (2,6-dimethyl-phenyl)-amide]	≥ 50	222 to 225 °C
CCOc1ccc(C)cc1NC(=O)Nc1ccc(N2CCN(C(=O)Nc3c(F)cccc3C(F)(F)F)CC2)cc1 [Example 119, 4-{4-[3-(2-ethoxy-5-methyl-phenyl)-ureido]-phenyl}-piperazine-1-carboxylic acid (2-fluoro-6-trifluoromethyl-phenyl)-amide]	≥ 50	144 to 146 °C
CCOc1ccc(C)cc1NC(=O)Nc1ccc(N2CCN(C(=O)Nc3ccc(C)cc3Cl)CC2)cc1 [Example 120, 4-{4-[3-(2-ethoxy-5-methyl-phenyl)-ureido]-phenyl}-piperazine-1-carboxylic acid (2-chloro-4-methyl-phenyl)-amide]	≥ 50	119 to 122 °C
CCOc1ccccc1NC(=O)Nc1ccc(N2CCN(C(=O)Nc3ccc(C)cc3Cl)CC2)cc1 [Example 121, 4-{4-[3-(2-ethoxy-phenyl)-ureido]-phenyl}-piperazine-1-carboxylic acid (2-chloro-4-methyl-phenyl)-amide]	≥ 50	179 to 181 °C
CCOc1ccc(F)cc1NC(=O)Nc1ccc(N2CCN(C(=O)Nc3ccc(C)cc3Cl)CC2)cc1 [Example 122, 4-{4-[3-(2-ethoxy-5-fluoro-phenyl)-ureido]-phenyl}-piperazine-1-carboxylic acid (2-chloro-4-methyl-phenyl)-amide]	≥ 50	155 to 157 °C
COc1ccc(F)cc1NC(=O)Nc1ccc(N2CCN(C(=O)Nc3ccc(C)cc3Cl)CC2)cc1 [Example 123, 4-{4-[3-(5-fluoro-2-methoxy-phenyl)-ureido]-phenyl}-piperazine-1-carboxylic acid (2-chloro-4-methyl-phenyl)-amide]	≥ 50	233 to 235 °C
COc1ccccc1NC(=O)Nc1ccc(N2CCN(C(=O)Nc3c(C)cccc3Cl)CC2)cc1 [Example 124, 4-{4-[3-(2-methoxy-phenyl)-ureido]-phenyl}-piperazine-1-carboxylic acid (2-chloro-6-methyl-phenyl)-amide]	≥ 50	245 to 247 °C
Cc1cccc(Cl)c1NC(=O)N1CCN(c2ccc(NC(=O)Nc3ccccc3F)cc2)CC1 [Example 125, 4-{4-[3-(2-fluoro-phenyl)-ureido]-phenyl}-piperazine-1-carboxylic acid (2-chloro-6-methyl-phenyl)-amide]	≥ 50	232 to 234 °C
Cc1cccc(Cl)c1NC(=O)N1CCN(c2ccc(NC(=O)Nc3ccccc3Cl)cc2)CC1 [Example 126, 4-{4-[3-(2-chloro-phenyl)-ureido]-phenyl}-piperazine-1-carboxylic acid (2-chloro-6-methyl-phenyl)-amide]	≥ 50	> 260 °C (dec.)
Cc1ccccc1NC(=O)Nc1ccc(N2CCN(C(=O)Nc3c(C)cccc3Cl)CC2)cc1 [Example 127, 4-[4-(3-o-tolyl-ureido)-phenyl]-piperazine-1-carboxylic acid (2-chloro-6-methyl-phenyl)-amide]	≥ 50	> 260 °C (dec.)
CCc1ccccc1NC(=O)Nc1ccc(N2CCN(C(=O)Nc3c(C)cccc3Cl)CC2)cc1 [Example 128, 4-{4-[3-(2-ethyl-phenyl)-ureido]-phenyl}-piperazine-1-carboxylic acid (2-chloro-6-methyl-phenyl)-amide]	≥ 50	217 to 219 °C
COc1ccc(C)cc1NC(=O)Nc1ccc(N2CCN(C(=O)Nc3ccc(Br)cc3Cl)CC2)cc1 [Example 129, 4-{4-[3-(2-methoxy-5-methyl-phenyl)-ureido]-phenyl}-piperazine-1-carboxylic acid (4-bromo-2-chloro-phenyl)-amide]	≥ 50	140 to 142 °C
CCCc1ccccc1NC(=O)Nc1ccc(N2CCN(C(=O)Nc3c(C)cccc3Cl)CC2)cc1 [Example 130, 4-{4-[3-(2-propyl-phenyl)-ureido]-phenyl}-piperazine-1-carboxylic acid (2-chloro-6-methyl-phenyl)-amide]	≥ 50	216 to 217 °C
Cc1ccc(C)c(NC(=O)Nc2ccc(N3CCN(C(=O)Nc4c(C)cccc4Cl)CC3)cc2)c1 [Example 131, 4-{4-[3-(2,5-dimethyl-phenyl)-ureido]-phenyl}-piperazine-1-carboxylic acid (2-chloro-6-methyl-phenyl)-amide]	≥ 50	251 to 253 °C
COc1ccc(Cl)cc1NC(=O)Nc1ccc(N2CCN(C(=O)Nc3c(Cl)cccc3Cl)CC2)cc1 [Example 132, 4-{4-[3-(5-chloro-2-methoxy-phenyl)-ureido]-phenyl}-piperazine-1-carboxylic acid (2,6-dichloro-phenyl)-amide]	≥ 50	189 to 190 °C
CCOc1ccccc1NC(=O)Nc1ccc(N2CCN(C(=O)Nc3c(Cl)cccc3Cl)CC2)cc1 [Example 133, 4-{4-[3-(2-ethoxy-phenyl)-ureido]-phenyl}-piperazine-1-carboxylic acid (2,6-dichloro-phenyl)-amide]	≥ 50	164 to 166 °C
